The values below come from PMC7153038, “Pharmacologic inhibition of RGD‐binding integrins ameliorates fibrosis and improves function following kidney injury” (Physiological Reports, 2020).

Where two headings read alike, the source gives them in different places.

Data set [1] deals with T1, integrin αvβ1 (Homo sapiens, UniProt P05556+P06756).
T1 construct: HEK‐293 cells, which naturally express this integrin; endogenous in cells; host or cells: HEK-293
Put plainly: integrin αvβ1-mediated attachment of HEK-293 cells to TGFβ-1 latency-associated peptide. It counts as cell-based. The settings on record: mean and SD, at least 3 independent assays, LAP ligand. How it is done:
The RGD peptidomimetic CWHM‐12 was synthesized as described in detail previously (Henderson et al., 2013). A close structural analog of this compound with improved oral bioavailability, CWHM‐680, was also synthesized at Saint Louis University. Potency for the compounds in blocking cell attachment mediated by integrins αvβ3, αvβ5, and αvβ6 was measured as previously described (Henderson et al., 2013). Potency for blocking cell attachment mediated by integrins αvβ1, αvβ8, and α8β1 was measured using modifications of this method which are briefly summarized as follows: To assess CWHM‐12 and CWHM‐680 effects on cellular αvβ1 function, we varied its concentration in an assay measuring binding of HEK‐293 cells, which naturally express this integrin (Nagarajan et al., 2007), to the surface of 96‐well plates coated with purified recombinant human TGFβ‐1 latency‐associated peptide (R&D Systems). To assess the effect on cellular αvβ8 function, we performed the assay with the same LAP ligand but with HEK‐293 cells which had been stably transfected to overexpress this integrin. To assess the effect on cellular α8β1 function, we performed the assay using HEK‐293 cells, which had been stably transfected to overexpress this integrin and used purified recombinant mouse nephronectin as the immobilized ligand (R&D Systems). […]

Data set [2] is described as follows: observation of deleterious effects in treated animals. Format: in vivo, mouse. As to conditions: 100 mg/kg/day s.c. minipump, 28 days. As for the experimental part:
Alzet osmotic minipumps (Cupertino, CA) were implanted subcutaneously in 8‐ to 10‐week‐old wild‐type male ICR outbred mice (Envigo) one day prior to induction of kidney injury to deliver vehicle (DMSO/H2O 1:1) or CWHM‐12 at a dose of 100 mg/kg per day. A single 5 mg/kg dose of aristolochic acid I sodium salt (Sigma‐Aldrich, A9451) in PBS was administered intraperitoneally to induce kidney injury, and mice were monitored daily for 27 days thereafter. Control (uninjured) mice were injected with an equal volume of PBS. Blood was obtained by maxillary vein puncture on days 0, 5 (peak injury), and 28 (study endpoint). For testing CWHM‐680, oral gavage (100 mg/kg per day) was started one day prior to injection of aristolochic acid I sodium salt and continued once daily until the study endpoint. Blood was obtained at days 0, 7, and 23 (study endpoint). […] Serum creatinine was measured by liquid chromatography–mass spectrometry (LC–MS/MS) at the University of Alabama O’Brien Center Bioanalytical Core. CWHM‐12 and CWHM‐680 concentrations were measured in plasma samples by liquid chromatography–tandem mass spectrometry (LC/MS/MS) using compound spiked into control plasma as a standard. All experiments were performed under protocols approved by the Institutional Animal Care and Use Committee at St. Louis University.

T1 sequence (P06756 31-889 limits assumed): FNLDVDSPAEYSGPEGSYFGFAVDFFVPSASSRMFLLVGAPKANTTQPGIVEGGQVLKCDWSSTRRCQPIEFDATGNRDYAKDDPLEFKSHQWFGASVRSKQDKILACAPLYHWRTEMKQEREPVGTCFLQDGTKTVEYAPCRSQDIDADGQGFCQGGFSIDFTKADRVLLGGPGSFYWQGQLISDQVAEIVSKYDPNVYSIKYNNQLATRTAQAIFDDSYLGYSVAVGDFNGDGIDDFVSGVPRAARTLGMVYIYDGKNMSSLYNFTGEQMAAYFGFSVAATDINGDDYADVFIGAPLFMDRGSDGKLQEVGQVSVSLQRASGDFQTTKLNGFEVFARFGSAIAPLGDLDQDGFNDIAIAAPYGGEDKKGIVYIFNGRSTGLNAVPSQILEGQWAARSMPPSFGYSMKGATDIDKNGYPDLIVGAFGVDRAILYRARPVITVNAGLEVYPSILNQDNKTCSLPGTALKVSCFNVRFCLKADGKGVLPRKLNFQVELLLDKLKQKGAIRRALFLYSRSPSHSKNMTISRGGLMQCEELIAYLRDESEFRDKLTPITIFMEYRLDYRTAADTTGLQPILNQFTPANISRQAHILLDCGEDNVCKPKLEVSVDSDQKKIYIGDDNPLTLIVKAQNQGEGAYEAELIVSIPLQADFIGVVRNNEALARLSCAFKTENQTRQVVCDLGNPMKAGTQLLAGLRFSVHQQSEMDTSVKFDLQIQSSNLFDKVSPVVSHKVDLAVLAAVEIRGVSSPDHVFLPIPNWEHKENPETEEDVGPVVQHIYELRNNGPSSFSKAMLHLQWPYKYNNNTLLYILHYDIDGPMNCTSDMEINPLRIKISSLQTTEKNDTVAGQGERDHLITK
T1 sequence (P06756 891-1048 partner limits assumed): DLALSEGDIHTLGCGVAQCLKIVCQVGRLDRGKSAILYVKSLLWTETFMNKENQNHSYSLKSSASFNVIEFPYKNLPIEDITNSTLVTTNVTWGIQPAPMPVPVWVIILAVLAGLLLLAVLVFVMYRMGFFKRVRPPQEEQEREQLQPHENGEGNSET
T1 sequence (P05556 21-798): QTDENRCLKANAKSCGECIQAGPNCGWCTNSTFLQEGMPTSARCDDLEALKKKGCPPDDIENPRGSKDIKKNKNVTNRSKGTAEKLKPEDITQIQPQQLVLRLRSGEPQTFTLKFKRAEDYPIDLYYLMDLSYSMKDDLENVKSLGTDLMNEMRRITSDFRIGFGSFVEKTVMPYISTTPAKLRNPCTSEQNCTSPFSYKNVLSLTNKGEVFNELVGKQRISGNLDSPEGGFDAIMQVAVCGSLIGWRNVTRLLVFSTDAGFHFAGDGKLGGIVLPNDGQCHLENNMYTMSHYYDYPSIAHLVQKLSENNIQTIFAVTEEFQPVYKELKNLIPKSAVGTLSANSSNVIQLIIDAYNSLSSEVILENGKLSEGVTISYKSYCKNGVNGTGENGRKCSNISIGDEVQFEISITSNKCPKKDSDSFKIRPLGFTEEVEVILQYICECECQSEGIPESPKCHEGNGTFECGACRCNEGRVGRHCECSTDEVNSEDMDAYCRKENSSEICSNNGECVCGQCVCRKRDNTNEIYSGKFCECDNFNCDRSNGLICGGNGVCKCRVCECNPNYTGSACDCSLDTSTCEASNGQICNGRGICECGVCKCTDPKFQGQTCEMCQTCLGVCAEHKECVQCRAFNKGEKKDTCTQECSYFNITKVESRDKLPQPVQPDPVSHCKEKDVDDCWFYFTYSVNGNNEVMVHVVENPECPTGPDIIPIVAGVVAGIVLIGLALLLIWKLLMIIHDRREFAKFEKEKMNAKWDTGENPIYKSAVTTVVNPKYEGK

Regarding `CC(C)(C)c1cc(Br)cc([C@H](CC(=O)O)NC(=O)CNC(=O)c2cc(O)cc(NC3=NCC(O)CN3)c2)c1` (stereo partly drawn) [CWHM‐12], the IC50 is 0.29 ± 0.14 nM in data set [1] (listed as CWHM−12, read-out: IC50, inhibition of αvβ1-mediated cell attachment) and less than 1 nM in data set [1] (read-out: IC50, inhibition of αvβ1-mediated cell attachment). Besides, in data set [2], the “obvious deleterious effects in treated animals” value is on record as “did not observe obvious deleterious effects”.

One may read the IC50 as the concentration that gives 50% inhibition.
